Among the data in patent US7834023B2 (Portola Pharmaceuticals, Inc., priority 2006, dated 2010) are IC50 values, retold here.

T1 sequence (Q9H244 whole entry): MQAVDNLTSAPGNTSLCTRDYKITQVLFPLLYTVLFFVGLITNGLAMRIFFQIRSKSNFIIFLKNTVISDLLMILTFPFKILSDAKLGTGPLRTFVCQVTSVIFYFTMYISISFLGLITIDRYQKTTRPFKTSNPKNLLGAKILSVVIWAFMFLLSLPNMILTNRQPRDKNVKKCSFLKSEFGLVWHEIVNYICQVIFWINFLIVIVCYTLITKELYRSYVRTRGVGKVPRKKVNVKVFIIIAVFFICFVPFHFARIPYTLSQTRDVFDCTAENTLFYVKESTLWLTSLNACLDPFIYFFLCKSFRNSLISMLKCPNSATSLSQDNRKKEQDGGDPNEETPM

The test has as its target T1, P2Y12 receptor (Homo sapiens, UniProt Q9H244).
T1 construct: endogenous in cells; host or cells: human platelets (outdated from blood banks or fresh), apyrase-washed, whole
Put plainly: platelet ADP receptor binding assay (ARB): inhibition of [3H]2-MeS-ADP binding to platelets. To be noted: [3H]2-MeS-ADP binding to apyrase-washed human platelets. On the procedure:
1. The Ability of Candidate Molecules to Inhibit the Binding of [^3H]2-MeS-ADP to the […] Receptor on Platelets was Determined Using a Radioligand Binding Assay.
Utilizing this assay the potency of inhibition of such compounds with respect to [^3H]2-MeS-ADP binding to whole platelets is determined. Under the conditions described in II (3) below, the binding of [^3H]2-MeS-ADP is solely due to the interaction of this ligand with the P2Y12 receptor, in that all the specific binding measured in this assay is competable with a P2Y12 antagonist (i.e., the specific binding is reduced to background levels by competition with an excess of P2Y12 antagonist, with no competition of binding when a P2Y1 antagonist is pre-incubated with the platelet preparation). [^3H]2-MeS-ADP binding experiments are routinely performed with outdated human platelets collected by standard procedures at hospital blood banks. Apyrase-washed outdated platelets are prepared as follows (all steps at room temperature, if not indicated otherwise):
Outdated platelet suspensions are diluted with 1 volume of CGS and platelets pelleted by centrifugation at 1900×g for 45 minutes. Platelet pellets are resuspended at 3-6×10^9 platelets/ml in CGS containing 1 U/ml apyrase (grade V, Sigma, St. Louis, Mo.) and incubated for 15 minutes at 37° C. After centrifugation at 730×g for 20 minutes, pellets are resuspended in Hepes-Tyrode's buffer containing 0.1% BSA (Sigma, St. Louis, Mo.) at a concentration of 6.66×10^8 platelets/ml. Binding experiments are performed after >45 minutes resting of the platelets.
Alternatively, binding experiments are performed with fresh human platelets prepared as described in section I (Inhibition of ADP-Mediated Platelet Aggregation in vitro), except that platelets are resuspended in Hepes-Tyrode's buffer containing 0.1% BSA (Sigma, St. Louis, Mo.) at a concentration of 6.66×10^8 platelets/mil. Very similar results are obtained with fresh and outdated platelets.
A platelet ADP receptor binding assay (ARB) using the tritiated potent agonist ligand [^3H]2-MeS-ADP (Jantzen, H. M. et al. (1999) Thromb. Hemost. 81:111-117) has been adapted to the 96-well microtiter format. In an assay volume of 0.2 ml Hepes-Tyrode's buffer with 0.1% BSA and 0.6% DMSO, 1×10^8 apyrase-washed platelets are preincubated in 96-well flat bottom microtiter plates for 5 minutes with serial dilutions of test compounds before addition of 1 nM [^3H]2-MeS-ADP ([^3H]2-methylthioadenosine-5′-diphosphate, ammonium salt; specific activity 20-50 Ci/mmole, obtained by custom synthesis from Amersham Life Science, Inc., Arlington Heights, Ill., or NEN Life Science Products, Boston, Mass.). Total binding is determined in the absence of test compounds. Samples for nonspecific binding may contain 10 μM unlabelled 2-MeS-ADP (RBI, Natick, Mass.). After incubation for 15 minutes at room temperature, unbound radioligand is separated by rapid filtration and two washes with cold (4-8° C.) Binding Wash Buffer (10 mM Hepes pH 7.4, 138 mM NaCl) using a 96-well cell harvester (Minidisc 96, Skatron Instruments, Sterling, Va.) and 8×12 GF/C glassfiber filtermats (Printed Filtermat A, for 1450 Microbeta, Wallac Inc., Gaithersburg, Md.). The platelet-bound radioactivity on the filtermats is determined in a scintillation counter (Microbeta 1450, Wallac Inc., Gaithersburg, Md.). Specific binding is determined by subtraction of non-specific binding from total binding, and specific binding in the presence of test compounds is expressed as % of specific binding in the absence of test compound dilutions. IC50s were derived by non-linear regression analysis.
Compound `CNc1cc2c(cc1F)C(=O)N(c1ccc(C(=O)N[C@@H](c3noc(=O)[nH]3)c3ccc(Cl)s3)cc1)CO2` [Compound 88, (S)-N-((5-chlorothiophen-2-yl)(5-oxo-4,5-dihydro-1,2,4-oxadiazol-3-yl)methyl)-4-(6-fluoro-7-(methylamino)-4-oxo-2H-benzo[e][1,3]oxazin-3(4H)-yl)benzamide] showed a half-inhibitory concentration (IC50) of less than 0.05 µM.

Consider `CCc1ccc2c(=O)n(-c3ccc(C(=O)NC(C(=O)O)c4ccc(Cl)s4)cc3)ccc2c1` (centres unmarked) [Compound 93, 2-(5-chlorothiophen-2-yl)-2-(4-(6-ethyl-1-oxoisoquinolin-2(1H)-yl)benzamido)acetic acid], for which the 50% inhibitory concentration (IC50) was greater than 0.5 µM.

`O=C(NC(C(=O)O)c1ccc(Cl)s1)c1ccc(-n2c(=O)[nH]c3ccc(I)cc3c2=O)cc1` (centres unmarked) [Compound 37, 2-(5-chlorothiophen-2-yl)-2-(4-(6-iodo-2,4-dioxo-1,2-dihydroquinazolin-3(4H)-yl)benzamido)acetic acid] registered an IC50 of 0.05 to 0.5 µM.

Turning to `CNc1cc2c(cc1F)C(=O)N(c1ccc(C(=O)NC(Cc3ccccc3)C(=O)O)cc1)CO2` (centres unmarked) [Compound 59, 2-(4-(6-fluoro-7-(methylamino)-4-oxo-2H-benzo[e][1,3]oxazin-3(4H)-yl)benzamido)-3-phenylpropanoic acid], the IC50 was greater than 0.5 µM.

`CNc1cc2c(cc1F)C(=O)N(c1ccc(C(=O)NC(Cc3cccs3)C(=O)O)cc1)CO2` (centres unmarked) [Compound 64, 2-(4-(6-fluoro-7-(methylamino)-4-oxo-2H-benzo[e][1,3]oxazin-3(4H)-yl)benzamido)-3-(thiophen-2-yl)propanoic acid] showed an IC50 of 0.05 to 0.5 µM.

With `CNc1cc2[nH]c(=O)n(-c3ccc(C(=O)NC(c4cccc(C)c4)c4nnn[nH]4)cc3)c(=O)c2cc1F` (centres unmarked) [Compound 22], the IC50 was greater than 0.5 µM.

The compound `CNc1cc2[nH]c(=O)n(-c3ccc(C(=O)N(CCC(=O)O)Cc4ccc(Cl)s4)cc3)c(=O)c2cc1F` [Compound 40, 3-(N-((5-chlorothiophen-2-yl)methyl)-4-(6-fluoro-7-(methylamino)-2,4-dioxo-1,2-dihydroquinazolin-3(4H)-yl)benzamido)propanoic acid] showed an IC50 greater than 0.5 µM.

`O=C(Nc1ccc(-n2c(=O)[nH]c3cc(NCc4ccc(F)cc4)ccc3c2=O)cc1)NC(Cc1cccs1)C(=O)O` (centres unmarked) [Compound 109, 2-(3-(4-(7-(4-fluorobenzylamino)-2,4-dioxo-1,2-dihydroquinazolin-3(4H)-yl)phenyl)ureido)-3-(thiophen-2-yl)propanoic acid] returned a concentration for half-maximal inhibition (IC50) of 0.05 to 0.5 µM.

In the case of `Cc1ccc2c(c1)C(=O)N(c1ccc(C(=O)NC(C(=O)O)c3ccc(Cl)s3)cc1)CO2` (centres unmarked) [Compound 77, 2-(5-chlorothiophen-2-yl)-2-(4-(6-methyl-4-oxo-2H-benzo[e][1,3]oxazin-3(4H)-yl)benzamido)acetic acid], the IC50 is greater than 0.5 µM.

Regarding `CNc1cc2c(cc1F)C(=O)N(c1ccc(CC(=O)NC(C(=O)O)c3ccc(Cl)s3)cc1)CO2` (centres unmarked) [Compound 114, 2-(5-chlorothiophen-2-yl)-2-(2-(4-(6-fluoro-7-(methylamino)-4-oxo-2H-benzo[e][1,3]oxazin-3(4H)-yl)phenyl)acetamido)acetic acid], the half-maximal inhibitory concentration (IC50) was greater than 0.5 µM.

`CNc1cc2c(cc1F)C(=O)N(c1ccc(CC(=O)NC(C(N)=O)c3ccc(Cl)s3)cc1)CO2` (centres unmarked) [Compound 122, N-(2-amino-1-(5-chlorothiophen-2-yl)-2-oxoethyl)-2-(4-(6-fluoro-7-(methylamino)-4-oxo-2H-benzo[e][1,3]oxazin-3(4H)-yl)phenyl)acetamide] had an IC50 of 0.05 to 0.5 µM.

In the case of `COc1ccc2c(=O)n(-c3ccc(C(=O)NC(C(=O)O)c4ccc(Cl)s4)cc3)ccc2c1` (centres unmarked) [Compound 101, 2-(5-chlorothiophen-2-yl)-2-(4-(6-methoxy-1-oxoisoquinolin-2(1H)-yl)benzamido)acetic acid], the IC50 was greater than 0.5 µM.

`CNc1cc2ncn(-c3ccc(C(=O)NC(C(=O)O)c4ccc(Cl)s4)cc3)c(=O)c2cc1F` (centres unmarked) [Compound 116, 2-(5-chlorothiophen-2-yl)-2-(4-(6-fluoro-7-(methylamino)-4-oxoquinazolin-3(4H)-yl)benzamido)acetic acid] displayed a half-inhibitory concentration (IC50) of 0.05 to 0.5 µM.

As for `NC(=O)c1ccc2c(=O)n(-c3ccc(C(=O)NC(C(=O)O)c4ccc(Cl)s4)cc3)ccc2c1` (centres unmarked) [Compound 94, 2-(4-(6-carbamoyl-1-oxoisoquinolin-2(1H)-yl)benzamido)-2-(5-chlorothiophen-2-yl)acetic acid], the half-inhibitory concentration (IC50) was greater than 0.5 µM.

The compound `CNc1cc2[nH]c(=O)n(-c3ccc(C(=O)NC(c4cccc(OC(F)(F)F)c4)c4nnn[nH]4)cc3)c(=O)c2cc1F` (centres unmarked) [Compound 31] showed an IC50 greater than 0.5 µM.

`CNc1cc2c(cc1F)C(=O)N(c1ccc(C(=O)NC(C(=O)O)c3ccccc3)cc1)CO2` (centres unmarked) [Compound 58, 2-(4-(6-fluoro-7-(methylamino)-4-oxo-2H-benzo[e][1,3]oxazin-3(4H)-yl)benzamido)-2-phenylacetic acid]: the half-maximal inhibitory concentration (IC50) fell in the range of 0.05 to 0.5 µM.

As for `CNc1cc2[nH]c(=O)n(-c3ccc(C(=O)NC(c4nnn[nH]4)c4ccccc4Cl)cc3)c(=O)c2cc1F` (centres unmarked) [Compound 28, N-((2-chlorophenyl)(1H-tetrazol-5-yl)methyl)-4-(6-fluoro-7-(methylamino)-2,4-dioxo-1,2-dihydroquinazolin-3(4H)-yl)benzamide], the IC50 was greater than 0.5 µM.

`O=C(Nc1ccc(-n2c(=O)[nH]c3cc(NCc4ccc(F)cc4)ccc3c2=O)cc1)NC(C(=O)O)c1cccs1` (centres unmarked) [Compound 108, 2-(3-(4-(7-(4-fluorobenzylamino)-2,4-dioxo-1,2-dihydroquinazolin-3(4H)-yl)phenyl)ureido)-2-(thiophen-2-yl)acetic acid] registered a half-inhibitory concentration (IC50) of 0.05 to 0.5 µM.

As to `CNc1cc2c(cc1F)C(=O)N(c1ccc(C(=O)NC(Cc3ccc(Cl)s3)C(=O)O)cc1)CO2` (centres unmarked) [Compound 57, 3-(5-chlorothiophen-2-yl)-2-(4-(6-fluoro-7-(methylamino)-4-oxo-2H-benzo[e][1,3]oxazin-3(4H)-yl)benzamido)propanoic acid], the half-maximal inhibitory concentration (IC50) was in the range of 0.05 to 0.5 µM.

With `CNc1cc2[nH]c(=O)n(-c3ccc(C(=O)NC(C(=O)O)c4ccc(Cl)s4)cc3OC)c(=O)c2cc1F` (centres unmarked) [Compound 51, 2-(5-chlorothiophen-2-yl)-2-(4-(6-fluoro-7-(methylamino)-2,4-dioxo-1,2-dihydroquinazolin-3(4H)-yl)-3-methoxybenzamido)acetic acid], the half-inhibitory concentration (IC50) is greater than 0.5 µM.

Compound `CNc1cc2c(cc1F)C(=O)N(c1ccc(C(=O)NC(C(=O)OC)c3ccc(Cl)s3)cc1)CO2` (centres unmarked) [Compound 66, methyl 2-(5-chlorothiophen-2-yl)-2-(4-(6-fluoro-7-(methylamino)-4-oxo-2H-benzo[e][1,3]oxazin-3(4H)-yl)benzamido)acetate] gave an IC50 of 0.05 to 0.5 µM.

On to `Cc1ccc2c(c1)OCN(c1ccc(C(=O)NC(C(=O)O)c3ccc(Cl)s3)cc1)C2=O` (centres unmarked) [Compound 69, 2-(5-chlorothiophen-2-yl)-2-(4-(7-methyl-4-oxo-2H-benzo[e][1,3]oxazin-3(4H)-yl)benzamido)acetic acid], for which the 50% inhibitory concentration (IC50) was greater than 0.5 µM.

Consider `CNc1cc2c(cc1F)C(=O)N(c1ccc(CC(=O)NC(C(=O)N3CCCC3)c3ccc(Cl)s3)cc1)CO2` (centres unmarked) [Compound 121, N-(1-(5-chlorothiophen-2-yl)-2-oxo-2-(pyrrolidin-1-yl)ethyl)-2-(4-(6-fluoro-7-(methylamino)-4-oxo-2H-benzo[e][1,3]oxazin-3(4H)-yl)phenyl)acetamide], for which the IC50 was greater than 0.5 µM.
